According to publication PMC9330179 (ACS Omega, 2022):

Legend:
Format in all cases: biochemical
[1] = target: T1, cathepsin B (Homo sapiens, UniProt P07858)
[2] = target: cathepsin S (Homo sapiens, UniProt P25774); assay: protease activity at a single dose; settings: read-out: GER-24 (50 μM) % control activity (100%, no inhibitor)
[3] = target: cathepsin H (Homo sapiens, UniProt P09668); assay: protease activity at a single dose; settings: read-out: GER-24 (50 μM) % control activity (100%, no inhibitor)
[4] = target: cathepsin V (Homo sapiens, UniProt O60911); assay: protease activity at a single dose; settings: read-out: GER-24 (50 μM) % control activity (100%, no inhibitor)
[5] = target: T1, cathepsin B; assay: fluorogenic Z-Glu-Lys-AMC assay at pH […], IC50
[6] = target: T2, cathepsin K (Homo sapiens, UniProt P43235); assay: protease activity at a single dose; settings: read-out: GER-24 (50 μM) % control activity (100%, no inhibitor)
T2 sequence (P43235 115-329): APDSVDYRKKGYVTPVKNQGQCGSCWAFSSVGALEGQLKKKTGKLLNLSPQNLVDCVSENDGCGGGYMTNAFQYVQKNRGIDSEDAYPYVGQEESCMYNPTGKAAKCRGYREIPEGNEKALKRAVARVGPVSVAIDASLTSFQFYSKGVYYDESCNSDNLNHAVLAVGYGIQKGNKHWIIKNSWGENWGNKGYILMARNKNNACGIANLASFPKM

Chain of cathepsin H (P09668 116-335, other chains not shown): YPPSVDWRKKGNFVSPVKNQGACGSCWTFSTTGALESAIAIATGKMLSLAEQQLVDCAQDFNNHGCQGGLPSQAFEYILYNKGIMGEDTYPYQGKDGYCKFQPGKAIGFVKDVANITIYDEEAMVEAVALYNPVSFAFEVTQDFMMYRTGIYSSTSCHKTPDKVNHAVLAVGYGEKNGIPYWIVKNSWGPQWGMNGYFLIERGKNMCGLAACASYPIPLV
Chain of cathepsin V (O60911 114-334): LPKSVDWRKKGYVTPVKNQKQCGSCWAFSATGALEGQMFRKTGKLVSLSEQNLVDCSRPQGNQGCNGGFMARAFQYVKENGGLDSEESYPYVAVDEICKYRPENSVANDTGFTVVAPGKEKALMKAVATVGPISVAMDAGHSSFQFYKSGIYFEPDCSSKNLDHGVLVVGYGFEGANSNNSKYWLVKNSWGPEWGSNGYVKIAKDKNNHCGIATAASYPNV
Chain of cathepsin S (P25774 115-331): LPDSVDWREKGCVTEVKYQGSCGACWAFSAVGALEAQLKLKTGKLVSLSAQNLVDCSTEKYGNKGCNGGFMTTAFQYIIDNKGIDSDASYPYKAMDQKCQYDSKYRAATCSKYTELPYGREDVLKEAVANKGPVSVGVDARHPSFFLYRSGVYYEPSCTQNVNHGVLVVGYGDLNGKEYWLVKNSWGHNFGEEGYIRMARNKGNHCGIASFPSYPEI

| Ki [1] [µM] | remaining activity at 50 µM [2] [%] | remaining activity at 50 µM [3] [%] | remaining activity at 50 µM [4] [%] | IC50 [5] [µM] | remaining activity at 50 µM [6] [%] | Structure (SMILES) |
| --- | --- | --- | --- | --- | --- | --- |
| 1.4 |  |  |  |  |  | O=S(=O)(O)Oc1ccc(Oc2cc(Br)c(Oc3ccc(OS(=O)(=O)O)c(Oc4ccc(Br)cc4Br)c3Br)c(Oc3ccc(Br)cc3Br)c2)cc1Br [GER-12, Crossbyanol B] |
|  | 0 | 21 | 17 | 16 | 7 | CCCCC/C=C\C/C=C\C=C/C#CCCCC(=O)O [GER-24, (7Z,9Z,12Z)-octadeca-7,9,12-trien-5-ynoic acid] |
